According to US20120165331A1, “Di/tri-aza-spiro-C9-C11alkanes” (priority 2010, published 2012):

Columns and labels:
human orexin 2 receptor = biological target: T1, human orexin 2 receptor (Homo sapiens, UniProt O43614); experiment: Calcium accumulation in cells (FLIPR), antagonism of orexin A, human orexin 2 receptor; type: cell-based; conditions: for Ki: calcium accumulation, antagonism of orexin A, Cheng-Prusoff corrected, read-out: FLIPR hOx2R Ki; for inhibition at 10 µM: measured at a concentration of 10 μM of compound, read-out: FLIPR hOx2R % inhibition
T1 construct: expressed in transfected cells
T1 sequence (O43614 1-444): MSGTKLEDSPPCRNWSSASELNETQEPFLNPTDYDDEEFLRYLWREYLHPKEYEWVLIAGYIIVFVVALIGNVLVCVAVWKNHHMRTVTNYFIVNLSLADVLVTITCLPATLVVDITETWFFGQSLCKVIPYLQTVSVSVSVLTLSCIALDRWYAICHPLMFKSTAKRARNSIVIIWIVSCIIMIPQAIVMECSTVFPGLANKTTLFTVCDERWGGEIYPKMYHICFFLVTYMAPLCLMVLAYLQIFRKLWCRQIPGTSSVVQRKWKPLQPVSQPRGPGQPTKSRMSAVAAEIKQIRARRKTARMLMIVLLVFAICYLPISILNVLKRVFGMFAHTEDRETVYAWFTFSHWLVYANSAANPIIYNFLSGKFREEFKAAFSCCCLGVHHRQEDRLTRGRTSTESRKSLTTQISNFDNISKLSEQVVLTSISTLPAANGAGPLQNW

human orexin 1 receptor = biological target: T2, human orexin 1 receptor (Homo sapiens, UniProt O43613); experiment: Calcium accumulation in cells (FLIPR), antagonism of orexin A, human orexin 1 receptor; type: cell-based; conditions: for Ki: calcium accumulation, antagonism of orexin A, Cheng-Prusoff corrected, read-out: FLIPR hOx1R Ki; for inhibition at 10 µM: measured at a concentration of 10 μM of compound, read-out: FLIPR hOx1R % inhibition
T2 construct: expressed in transfected cells
T2 sequence (O43613 1-425): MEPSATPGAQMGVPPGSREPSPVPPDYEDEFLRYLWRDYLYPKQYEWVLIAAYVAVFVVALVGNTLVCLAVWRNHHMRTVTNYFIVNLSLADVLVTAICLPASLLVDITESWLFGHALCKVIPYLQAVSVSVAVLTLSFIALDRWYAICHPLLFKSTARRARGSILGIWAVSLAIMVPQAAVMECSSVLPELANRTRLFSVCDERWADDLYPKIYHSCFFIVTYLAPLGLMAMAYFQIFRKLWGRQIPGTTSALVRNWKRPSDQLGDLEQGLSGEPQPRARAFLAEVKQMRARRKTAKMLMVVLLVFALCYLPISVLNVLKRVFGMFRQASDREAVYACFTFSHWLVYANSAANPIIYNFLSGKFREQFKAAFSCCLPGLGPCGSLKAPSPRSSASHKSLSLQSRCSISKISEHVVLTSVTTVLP

Compound	Ki (human orexin 2 receptor) [nM]	Ki (human orexin 1 receptor) [nM]	inhibition at 10 µM (human orexin 2 receptor) [%]	inhibition at 10 µM (human orexin 1 receptor) [%]
Cc1cc(C)nc(N2CCC3(CCN(Cc4c[nH]c5ccccc45)C3=O)C2)c1 (stereo not shown) [Example 5.29, 2-((1H-indol-3-yl)methyl)-7-(4,6-dimethylpyridin-2-yl)-2,7-diazaspiro[4.4]nonan-1-one]	114	1490		
COc1ccnc(N2CCC3(CCN(Cc4c[nH]c5ccccc45)C3=O)C2)c1 (stereo not shown) [Example 5.30, 2-((1H-indol-3-yl)methyl)-7-(4-methoxypyridin-2-yl)-2,7-diazaspiro[4.4]nonan-1-one]	193	4350		
Cc1cc(N2CCC3(CCN(Cc4c[nH]c5ccccc45)C3=O)C2)nc(C)n1 (stereo not shown) [Example 5.31, 2-((1H-indol-3-yl)methyl)-7-(2,6-dimethylpyrimidin-4-yl)-2,7-diazaspiro[4.4]nonan-1-one]			24	< 10
Cn1ccc2ccnc(N3CCC4(CCN(Cc5c[nH]c6ccccc56)C4=O)C3)c21 (stereo not shown) [Example 5.32, 2-((1H-indol-3-yl)methyl)-7-(1-methyl-1H-pyrrolo[2,3-c]pyridin-7-yl)-2,7-diazaspiro[4.4]nonan-1-one]	2290	4470		
COc1cc(N2CCC3(CCN(Cc4c[nH]c5ccccc45)C3=O)C2)nc2ccnn12 (stereo not shown) [Example 5.33, 2-((1H-indol-3-yl)methyl)-7-(7-methoxypyrazolo[1,5-a]pyrimidin-5-yl)-2,7-diazaspiro[4.4]nonan-1-one]			< 10	< 10
Cc1noc(-c2ccnc(N3CCC4(CCN(Cc5c[nH]c6ccccc56)C4=O)C3)c2)n1 (stereo not shown) [Example 5.34, 2-((1H-indol-3-yl)methyl)-7-(4-(3-methyl-1,2,4-oxadiazol-5-yl)pyridin-2-yl)-2,7-diazaspiro[4.4]nonan-1-one]	1470	2150		
O=C1N(Cc2c[nH]c3ccccc23)CCC12CCN(c1cc(N3CCCC3)ncn1)C2 (stereo not shown) [Example 5.35, 2-((1H-indol-3-yl)methyl)-7-(6-(pyrrolidin-1-yl)pyrimidin-4-yl)-2,7-diazaspiro[4.4]nonan-1-one]	2720	1770		
COc1nc(C)cc(N2CCC3(CCN(Cc4c[nH]c5ccccc45)C3=O)C2)n1 (stereo not shown) [Example 5.36, 2-((1H-indol-3-yl)methyl)-7-(2-methoxy-6-methylpyrimidin-4-yl)-2,7-diazaspiro[4.4]nonan-1-one]	927			18
Cc1csc(N2CCC3(CCN(Cc4c[nH]c5ccccc45)C3=O)C2)n1 (stereo not shown) [Example 5.37, 2-((1H-indol-3-yl)methyl)-7-(4-methylthiazol-2-yl)-2,7-diazaspiro[4.4]nonan-1-one]	1410	3590		
COc1cc(N2CCC3(CCN(Cc4c[nH]c5ccccc45)C3=O)C2)n2nccc2n1 (stereo not shown) [Example 5.38, 2-((1H-indol-3-yl)methyl)-7-(5-methoxypyrazolo[1,5-a]pyrimidin-7-yl)-2,7-diazaspiro[4.4]nonan-1-one]	1020	2410		
CC(C)c1ccnc(N2CCC3(CCN(Cc4c[nH]c5ccccc45)C3=O)C2)n1 (stereo not shown) [Example 5.39, 2-((1H-indol-3-yl)methyl)-7-(4-isopropylpyrimidin-2-yl)-2,7-diazaspiro[4.4]nonan-1-one]	283	1210		
Cc1cn2ccnc(N3CCC4(CCN(Cc5c[nH]c6ccccc56)C4=O)C3)c2n1 (stereo not shown) [Example 5.40, 2-((1H-indol-3-yl)methyl)-7-(2-methylimidazo[1,2-a]pyrazin-8-yl)-2,7-diazaspiro[4.4]nonan-1-one]	188	1730		
O=C1N(Cc2c[nH]c3ccccc23)CCC12CCN(c1nccc(C(F)(F)F)n1)C2 (stereo not shown) [Example 5.41, 2-((1H-indol-3-yl)methyl)-7-(4-(trifluoromethyl)pyrimidin-2-yl)-2,7-diazaspiro[4.4]nonan-1-one]	343	2410		
COc1cc(C)nc(N2CCC3(CCN(Cc4ccccc4-c4nc(C)no4)C3=O)C2)n1 (stereo not shown) [Example 5.42, 7-(4-methoxy-6-methylpyrimidin-2-yl)-2-(2-(3-methyl-1,2,4-oxadiazol-5-yl)benzyl)-2,7-diazaspiro[4.4]nonan-1-one]	180	1950		
COc1cc(C)nc(N2CCC3(CCN(Cc4nn(C)nc4Br)C3=O)C2)n1 (stereo not shown) [Example 5.46, 2-((5-bromo-2-methyl-2H-1,2,3-triazol-4-yl)methyl)-7-(4-methoxy-6-methylpyrimidin-2-yl)-2,7-diazaspiro[4.4]nonan-1-one]			21	< 10
O=C1N(Cc2c[nH]c3ccccc23)CCC12CCCN(c1cnc3ccccc3n1)C2 (stereo not shown) [Example 6.1]	639	1130		
COc1ccnc(N2CCC3(CCCN(Cc4c[nH]c5ncccc45)C3=O)C2)n1 (stereo not shown) [Example 7.2, 7-((1H-Pyrrolo[2,3-b]pyridin-3-yl)methyl)-2-(4-methoxypyrimidin-2-yl)-2,7-diazaspiro[4.5]decan-6-one]	703	3200		
COc1ccnc(N2CCC3(CCCN(Cc4n[nH]c5ccccc45)C3=O)C2)n1 (stereo not shown) [Example 7.3, 7-((1H-Indazol-3-yl)methyl)-2-(4-methoxypyrimidin-2-yl)-2,7-diazaspiro[4.5]decan-6-one]	234	1430		
COc1ccnc(N2CCC3(CCCN(Cc4ccccc4-c4nc(C)no4)C3=O)C2)n1 (stereo not shown) [Example 7.5, 2-(4-Methoxypyrimidin-2-yl)-7-(2-(3-methyl-1,2,4-oxadiazol-5-yl)benzyl)-2,7-diazaspiro[4.5]decan-6-one]	221	981		
COc1cccc(-c2nn(C)nc2CN2CCCC3(CCN(c4nccc(OC)n4)C3)C2=O)c1 (stereo not shown) [Example 7.7, 7-((5-(3-Methoxyphenyl)-2-methyl-2H-1,2,3-triazol-4-yl)methyl)-2-(4-methoxypyrimidin-2-yl)-2,7-diazaspiro[4.5]decan-6-one]	366	537		
O=C1N(Cc2c[nH]c3ccccc23)CCCC12CCN(c1nc3ccccc3o1)C2 (stereo not shown) [Example 7.8, 7-((1H-Indol-3-yl)methyl)-2-(benzo[d]oxazol-2-yl)-2,7-diazaspiro[4.5]decan-6-one]	168	98		
COc1cc(C)nc(N2CCC3(CCCN(Cc4c[nH]c5ncccc45)C3=O)C2)n1 (stereo not shown) [Example 7.13, 7-((1H-pyrrolo[2,3-b]pyridin-3-yl)methyl)-2-(4-methoxy-6-methylpyrimidin-2-yl)-2,7-diazaspiro[4.5]decan-6-one]	115	299		
Cc1cncc(N2CCC3(CCC(=O)N3Cc3cccc4[nH]ccc34)CC2)n1 [Example 8.2, 1-((1H-Indol-4-yl)methyl)-8-(6-methylpyrazin-2-yl)-1,8-diazaspiro[4.5]decan-2-one]	133			12
O=C1COCC2(CCN(c3cnc4ccccc4n3)CC2)N1Cc1c[nH]c2ccccc12 [Example 8.8, 1-((1H-Indol-3-yl)methyl)-9-(quinoxalin-2-yl)-4-oxa-1,9-diazaspiro[5.5]undecan-2-one]	635			33
Cn1ccc2c(CN3C(=O)COCC34CCN(c3cnc5ccccc5n3)CC4)cccc21 [Example 8.10, 1-((1-Methyl-1H-indol-4-yl)methyl)-9-(quinoxalin-2-yl)-4-oxa-1,9-diazaspiro[5.5]undecan-2-one]	202	265		
O=C1COCC2(CCN(c3cnc4ccccc4n3)CC2)N1Cc1cccc(-c2cccnc2)c1 [Example 8.12, 1-(3-(Pyridin-3-yl)benzyl)-9-(quinoxalin-2-yl)-4-oxa-1,9-diazaspiro[5.5]undecan-2-one]		232	30	
Cc1ccc(C)c(CN2C(=O)COCC23CCN(c2cncc(C)n2)CC3)c1 [Example 8.13, 1-(2,5-Dimethylbenzyl)-9-(6-methylpyrazin-2-yl)-4-oxa-1,9-diazaspiro[5.5]undecan-2-one]	405			< 10
Cc1cncc(N2CCC3(CC2)COCC(=O)N3Cc2cccc3[nH]ccc23)n1 [Example 8.14, 1-((1H-Indol-4-yl)methyl)-9-(6-methylpyrazin-2-yl)-4-oxa-1,9-diazaspiro[5.5]undecan-2-one]	506			14
N#Cc1ccnc(N2CCC3(CC2)COCC(=O)N3Cc2cccc3[nH]ccc23)c1 [Example 8.16, 2-(1-((1H-Indol-4-yl)methyl)-2-oxo-4-oxa-1,9-diazaspiro[5.5]undecan-9-yl)isonicotinonitrile]	1020			< 10
